Laboratory results reported in PubChem BioAssay (NCI).
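Values below derive from 48-hour exposures of cells grown in 96-well plates, with endpoints linearly interpolated between the two concentrations bracketing the appropriate inhibition level. Here, GI50 denotes the concentration required for 50% inhibition of growth. At the TGI there is no net growth.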

Legend:
Test in all cases: inhibition of tumour cell growth, NCI panel, 48 h
NCI-H23 lung = test system: NCI-H23 lung
U251 CNS = test system: U251 CNS
SW-620 colon = test system: SW-620 colon
KM12 colon = test system: KM12 colon
OVCAR-3 ovarian = test system: OVCAR-3 ovarian
PC-3 prostate = test system: PC-3 prostate
M14 melanoma = test system: M14 melanoma
K-562 leukemia = test system: K-562 leukemia
LOX IMVI melanoma = test system: LOX IMVI melanoma
NCI-H460 lung = test system: NCI-H460 lung
COLO 205 colon = test system: COLO 205 colon
HCT-116 colon = test system: HCT-116 colon
HCT-15 colon = test system: HCT-15 colon
IGROV1 ovarian = test system: IGROV1 ovarian
A498 renal = test system: A498 renal
OVCAR-8 ovarian = test system: OVCAR-8 ovarian
TK-10 renal = test system: TK-10 renal
UACC-257 melanoma = test system: UACC-257 melanoma
OVCAR-4 ovarian = test system: OVCAR-4 ovarian
SK-OV-3 ovarian = test system: SK-OV-3 ovarian
NCI-H226 lung = test system: NCI-H226 lung
RPMI-8226 leukemia = test system: RPMI-8226 leukemia
SF-539 CNS = test system: SF-539 CNS
SK-MEL-2 melanoma = test system: SK-MEL-2 melanoma
CCRF-CEM leukemia = test system: CCRF-CEM leukemia
CAKI-1 renal = test system: CAKI-1 renal
SK-MEL-28 melanoma = test system: SK-MEL-28 melanoma
HOP-62 NSCLC = test system: HOP-62 NSCLC
SNB-19 CNS = test system: SNB-19 CNS
SN12C renal = test system: SN12C renal
RXF 393 renal = test system: RXF 393 renal
NCI-H522 lung = test system: NCI-H522 lung
HT29 colon = test system: HT29 colon
A549 NSCLC = test system: A549 NSCLC
NCI/ADR-RES ovarian = test system: NCI/ADR-RES ovarian
SR leukemia = test system: SR leukemia
T-47D breast = test system: T-47D breast
MDA-MB-435 = test system: MDA-MB-435
SNB-75 CNS = test system: SNB-75 CNS
HS 578T breast = test system: HS 578T breast
SF-268 CNS = test system: SF-268 CNS
786-0 renal = test system: 786-0 renal
HL-60(TB) leukemia = test system: HL-60(TB) leukemia
ACHN renal = test system: ACHN renal
HCC-2998 colon = test system: HCC-2998 colon
MOLT-4 leukemia = test system: MOLT-4 leukemia
HOP-92 NSCLC = test system: HOP-92 NSCLC
MCF7 breast = test system: MCF7 breast
UO-31 renal = test system: UO-31 renal
SK-MEL-5 melanoma = test system: SK-MEL-5 melanoma
UACC-62 melanoma = test system: UACC-62 melanoma
MALME-3M melanoma = test system: MALME-3M melanoma
DU-145 prostate = test system: DU-145 prostate
OVCAR-5 ovarian = test system: OVCAR-5 ovarian
BT-549 breast = test system: BT-549 breast
MDA-MB-231 breast = test system: MDA-MB-231 breast
SF-295 CNS = test system: SF-295 CNS

`CCN(CC)CCN(Cc1ccc(F)cc1)c1ccc(CO)c(Cl)c1` was tested, and the GI50 (NCI-H23 lung) was 35.4 µM, the TGI (NCI-H23 lung) was greater than 100 µM and the GI50 (U251 CNS) was 22.8 µM. The TGI (U251 CNS) was greater than 100 µM, the GI50 (SW-620 colon) was 31.5 µM and the TGI (SW-620 colon) was greater than 100 µM. It also gave a GI50 (KM12 colon) of 18.8 µM, a TGI (KM12 colon) of 75.9 µM and a GI50 (OVCAR-3 ovarian) of 14 µM. The TGI (OVCAR-3 ovarian) was 35.9 µM, the GI50 (PC-3 prostate) was 13.2 µM and the TGI (PC-3 prostate) was greater than 92.3 µM. For the same molecule, the GI50 (M14 melanoma) was 17.2 µM, the TGI (M14 melanoma) was 35.2 µM and the GI50 (K-562 leukemia) was 10.2 µM. The TGI (K-562 leukemia) was 41.5 µM, the GI50 (LOX IMVI melanoma) was 21.1 µM and the TGI (LOX IMVI melanoma) was 52.5 µM. It also gave a GI50 (NCI-H460 lung) of 1.17 µM, a TGI (NCI-H460 lung) of 3.97 µM and a GI50 (COLO 205 colon) of 2.2 µM. The TGI (COLO 205 colon) was 5.54 µM, the GI50 (HCT-116 colon) was 3.55 µM and the TGI (HCT-116 colon) was greater than 50.1 µM. It also gave a GI50 (HCT-15 colon) of 12.7 µM, a TGI (HCT-15 colon) greater than 100 µM and a GI50 (IGROV1 ovarian) of 0.832 µM. For the same molecule, the TGI (IGROV1 ovarian) was 3.61 µM, the GI50 (A498 renal) was 1.55 µM and the TGI (A498 renal) was 3.18 µM. It also gave a GI50 (OVCAR-8 ovarian) of 5.37 µM, a TGI (OVCAR-8 ovarian) of 75.4 µM and a GI50 (TK-10 renal) of 4.86 µM. The TGI (TK-10 renal) was 22.2 µM, the GI50 (UACC-257 melanoma) was 12 µM and the TGI (UACC-257 melanoma) was 27.7 µM. For the same molecule, the GI50 (OVCAR-4 ovarian) was 4.6 µM, the TGI (OVCAR-4 ovarian) was 35.2 µM and the GI50 (SK-OV-3 ovarian) was 2.96 µM. For the same molecule, the TGI (SK-OV-3 ovarian) was 13.6 µM, the GI50 (NCI-H226 lung) was 0.235 µM and the TGI (NCI-H226 lung) was 0.713 µM. It also gave a GI50 (RPMI-8226 leukemia) of 23.8 µM, a TGI (RPMI-8226 leukemia) of 75.3 µM and a GI50 (SF-539 CNS) of 48.1 µM. The TGI (SF-539 CNS) was greater than 100 µM, the GI50 (SK-MEL-2 melanoma) was 21.2 µM and the TGI (SK-MEL-2 melanoma) was 44.4 µM. For the same molecule, the GI50 (CCRF-CEM leukemia) was 61.7 µM, the TGI (CCRF-CEM leukemia) was greater than 100 µM and the GI50 (CAKI-1 renal) was 1.85 µM. For the same molecule, the TGI (CAKI-1 renal) was 17.3 µM, the GI50 (SK-MEL-28 melanoma) was 17.2 µM and the TGI (SK-MEL-28 melanoma) was 32.9 µM. The GI50 (HOP-62 NSCLC) was 9.84 µM, the TGI (HOP-62 NSCLC) was 63.3 µM and the GI50 (SNB-19 CNS) was greater than 100 µM. The TGI (SNB-19 CNS) was greater than 100 µM, the GI50 (SN12C renal) was 27.7 µM and the TGI (SN12C renal) was greater than 100 µM. It also gave a GI50 (RXF 393 renal) of 31.2 µM, a TGI (RXF 393 renal) greater than 69.3 µM and a GI50 (NCI-H522 lung) of 27.9 µM. For the same molecule, the TGI (NCI-H522 lung) was 68.2 µM, the GI50 (HT29 colon) was 18.6 µM and the TGI (HT29 colon) was 69.4 µM. It also gave a GI50 (A549 NSCLC) of 2.42 µM, a TGI (A549 NSCLC) of 12.8 µM and a GI50 (NCI/ADR-RES ovarian) of 9.64 µM. It also gave a TGI (NCI/ADR-RES ovarian) of 50.2 µM, a GI50 (SR leukemia) of 23.5 µM and a TGI (SR leukemia) of 67.9 µM. The GI50 (T-47D breast) was 7.05 µM, the TGI (T-47D breast) was greater than 62.6 µM and the GI50 (MDA-MB-435) was 23.5 µM. It also gave a TGI (MDA-MB-435) of 74.7 µM, a GI50 (SNB-75 CNS) of 12.2 µM and a TGI (SNB-75 CNS) greater than 94.8 µM. For the same molecule, the GI50 (HS 578T breast) was 48.3 µM, the TGI (HS 578T breast) was greater than 100 µM and the GI50 (SF-268 CNS) was 76.5 µM. For the same molecule, the TGI (SF-268 CNS) was greater than 100 µM, the GI50 (786-0 renal) was 30.2 µM and the TGI (786-0 renal) was greater than 100 µM. The GI50 (HL-60(TB) leukemia) was 23.1 µM, the TGI (HL-60(TB) leukemia) was greater than 58.5 µM and the GI50 (ACHN renal) was 38.2 µM. The TGI (ACHN renal) was greater than 100 µM, the GI50 (HCC-2998 colon) was 3.09 µM and the TGI (HCC-2998 colon) was 12.8 µM. The GI50 (MOLT-4 leukemia) was 40.1 µM, the TGI (MOLT-4 leukemia) was greater than 100 µM and the GI50 (HOP-92 NSCLC) was 2.66 µM. It also gave a TGI (HOP-92 NSCLC) of 19.3 µM, a GI50 (MCF7 breast) of 4.55 µM and a TGI (MCF7 breast) of 85.5 µM. For the same molecule, the GI50 (UO-31 renal) was 19.5 µM, the TGI (UO-31 renal) was 95.1 µM and the GI50 (SK-MEL-5 melanoma) was 16.3 µM. For the same molecule, the TGI (SK-MEL-5 melanoma) was 30.1 µM, the GI50 (UACC-62 melanoma) was 6.07 µM and the TGI (UACC-62 melanoma) was 20.8 µM. For the same molecule, the GI50 (MALME-3M melanoma) was 19.5 µM, the TGI (MALME-3M melanoma) was 37.3 µM and the GI50 (DU-145 prostate) was 9.97 µM. For the same molecule, the TGI (DU-145 prostate) was greater than 73.8 µM, the GI50 (OVCAR-5 ovarian) was 3.25 µM and the TGI (OVCAR-5 ovarian) was 12.4 µM. The GI50 (BT-549 breast) was greater than 89.6 µM, the TGI (BT-549 breast) was greater than 100 µM and the GI50 (MDA-MB-231 breast) was 12.2 µM. The TGI (MDA-MB-231 breast) was 54.2 µM, the GI50 (SF-295 CNS) was 15.1 µM and the TGI (SF-295 CNS) was 49.9 µM.
